Results reported in article PMC10175918 (Communications Biology, 2023).
Like-named read-outs stand apart in the source and are kept apart here.

Columns and labels:
Experiment in all cases: TGFα-shedding assay-based GPCR screening with chimeric Gα subunit proteins
Format in all cases: cell-based
[1] = target: T1, 348 GPCRs (Homo sapiens, UniProt P32249); details: EBI2 (G protein-coupled receptor 183 (Epstein-Barr Virus Induced Gene 2)); 10µM, Favipiravir 100μM
T1 construct: expressed in transfected cells; host or cells: HEK293A
T1 sequence (P32249 whole entry): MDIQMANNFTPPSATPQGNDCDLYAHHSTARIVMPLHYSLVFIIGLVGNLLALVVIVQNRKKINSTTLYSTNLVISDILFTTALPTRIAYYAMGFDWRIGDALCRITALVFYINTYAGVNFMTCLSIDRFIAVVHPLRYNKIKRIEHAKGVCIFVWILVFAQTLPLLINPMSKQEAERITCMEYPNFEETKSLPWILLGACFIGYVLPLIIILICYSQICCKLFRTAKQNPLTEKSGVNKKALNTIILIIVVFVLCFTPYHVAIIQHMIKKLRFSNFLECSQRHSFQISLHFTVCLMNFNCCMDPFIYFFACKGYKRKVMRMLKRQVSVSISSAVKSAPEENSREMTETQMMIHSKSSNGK

[2] = target: T2, 348 GPCRs (Homo sapiens, UniProt Q96P67); details: 10µM, Favipiravir 100μM
T2 construct: expressed in transfected cells; host or cells: HEK293A
T2 sequence (Q96P67 whole entry): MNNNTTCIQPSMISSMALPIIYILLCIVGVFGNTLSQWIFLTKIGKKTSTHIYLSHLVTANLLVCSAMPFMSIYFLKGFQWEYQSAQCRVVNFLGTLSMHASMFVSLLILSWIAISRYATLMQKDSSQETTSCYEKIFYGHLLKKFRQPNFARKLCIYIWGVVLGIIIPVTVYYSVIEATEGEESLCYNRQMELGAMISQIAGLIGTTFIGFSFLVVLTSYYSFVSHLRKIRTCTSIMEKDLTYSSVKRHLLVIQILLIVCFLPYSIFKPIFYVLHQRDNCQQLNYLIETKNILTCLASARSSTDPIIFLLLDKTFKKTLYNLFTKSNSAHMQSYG

[3] = target: T3, 348 GPCRs (Homo sapiens, UniProt P41597); details: 10µM, Favipiravir 100μM
T3 construct: expressed in transfected cells; host or cells: HEK293A
T3 sequence (P41597 whole entry): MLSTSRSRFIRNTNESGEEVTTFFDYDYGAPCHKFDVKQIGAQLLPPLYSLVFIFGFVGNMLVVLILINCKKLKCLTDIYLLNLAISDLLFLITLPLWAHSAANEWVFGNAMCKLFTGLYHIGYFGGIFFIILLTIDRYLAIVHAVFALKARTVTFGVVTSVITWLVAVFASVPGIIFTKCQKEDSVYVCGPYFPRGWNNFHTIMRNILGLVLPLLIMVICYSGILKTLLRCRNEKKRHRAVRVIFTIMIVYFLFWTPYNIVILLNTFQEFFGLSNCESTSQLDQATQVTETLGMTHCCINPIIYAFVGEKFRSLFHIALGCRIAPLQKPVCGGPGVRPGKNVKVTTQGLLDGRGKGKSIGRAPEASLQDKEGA

[4] = target: T4, 348 GPCRs (Homo sapiens, UniProt P0DMS8); details: 10µM, Favipiravir 100μM
T4 construct: expressed in transfected cells; host or cells: HEK293A
T4 sequence (P0DMS8 1-318): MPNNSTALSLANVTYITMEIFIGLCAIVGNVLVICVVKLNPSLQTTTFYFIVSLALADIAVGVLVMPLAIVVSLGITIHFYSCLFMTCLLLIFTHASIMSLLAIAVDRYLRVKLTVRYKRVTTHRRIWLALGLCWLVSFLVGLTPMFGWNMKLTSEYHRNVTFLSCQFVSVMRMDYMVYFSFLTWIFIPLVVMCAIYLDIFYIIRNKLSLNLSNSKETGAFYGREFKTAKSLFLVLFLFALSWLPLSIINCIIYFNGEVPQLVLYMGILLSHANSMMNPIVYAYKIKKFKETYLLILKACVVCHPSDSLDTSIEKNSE

[5] = target: 348 GPCRs (Homo sapiens, UniProt P47872); details: SCTR (secretin receptor); 10µM, Favipiravir 100μM
Sequence of 348 GPCRs (Homo sapiens, UniProt P47872) (P47872 23-440): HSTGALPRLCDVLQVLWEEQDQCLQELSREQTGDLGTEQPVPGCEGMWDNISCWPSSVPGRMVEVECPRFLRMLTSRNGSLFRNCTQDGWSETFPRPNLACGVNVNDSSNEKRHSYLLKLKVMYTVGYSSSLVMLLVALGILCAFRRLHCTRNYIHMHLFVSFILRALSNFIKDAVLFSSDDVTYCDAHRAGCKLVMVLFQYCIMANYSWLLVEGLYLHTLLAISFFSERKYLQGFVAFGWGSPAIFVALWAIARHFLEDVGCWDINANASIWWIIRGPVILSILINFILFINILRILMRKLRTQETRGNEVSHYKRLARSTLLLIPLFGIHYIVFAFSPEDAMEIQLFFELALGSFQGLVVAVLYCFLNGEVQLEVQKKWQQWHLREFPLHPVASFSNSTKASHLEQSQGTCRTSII

[6] = target: 348 GPCRs (Homo sapiens, UniProt O60894); details: 10µM, Favipiravir 100μM
Sequence of 348 GPCRs (Homo sapiens, UniProt O60894) (O60894 27-148): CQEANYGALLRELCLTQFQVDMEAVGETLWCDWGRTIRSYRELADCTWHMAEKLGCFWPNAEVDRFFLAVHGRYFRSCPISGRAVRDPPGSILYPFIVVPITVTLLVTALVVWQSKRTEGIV

[7] = target: 348 GPCRs (Homo sapiens, UniProt P30874); details: 10µM, Favipiravir 100μM
Sequence of 348 GPCRs (Homo sapiens, UniProt P30874) (P30874 whole entry): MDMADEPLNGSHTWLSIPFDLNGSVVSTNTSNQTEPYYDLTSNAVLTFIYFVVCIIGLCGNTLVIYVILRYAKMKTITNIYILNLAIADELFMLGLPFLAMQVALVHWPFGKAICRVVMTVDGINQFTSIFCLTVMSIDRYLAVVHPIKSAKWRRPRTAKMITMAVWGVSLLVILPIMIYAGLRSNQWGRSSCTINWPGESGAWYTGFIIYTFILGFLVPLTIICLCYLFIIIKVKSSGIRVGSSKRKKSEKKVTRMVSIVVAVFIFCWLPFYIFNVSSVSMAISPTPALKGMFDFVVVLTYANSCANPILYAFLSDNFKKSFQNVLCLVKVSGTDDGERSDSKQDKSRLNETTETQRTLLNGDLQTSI

[8] = target: T5, 348 GPCRs (Homo sapiens, UniProt O15218); details: 10µM, Favipiravir 100μM
T5 construct: expressed in transfected cells; host or cells: HEK293A
T5 sequence (O15218 whole entry): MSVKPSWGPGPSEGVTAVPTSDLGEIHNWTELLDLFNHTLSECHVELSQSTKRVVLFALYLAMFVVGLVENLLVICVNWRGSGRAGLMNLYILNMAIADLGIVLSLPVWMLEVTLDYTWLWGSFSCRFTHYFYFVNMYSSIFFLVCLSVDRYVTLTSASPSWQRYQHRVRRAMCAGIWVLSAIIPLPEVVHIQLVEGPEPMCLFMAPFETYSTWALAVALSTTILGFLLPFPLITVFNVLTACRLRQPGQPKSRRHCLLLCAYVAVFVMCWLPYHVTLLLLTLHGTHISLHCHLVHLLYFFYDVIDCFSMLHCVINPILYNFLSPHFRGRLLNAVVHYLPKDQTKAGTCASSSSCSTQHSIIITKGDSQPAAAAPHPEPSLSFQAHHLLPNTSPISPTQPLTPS

[9] = target: T6, 348 GPCRs (Homo sapiens, UniProt P46094)
T6 construct: expressed in transfected cells; host or cells: HEK293A
T6 sequence (P46094 1-333): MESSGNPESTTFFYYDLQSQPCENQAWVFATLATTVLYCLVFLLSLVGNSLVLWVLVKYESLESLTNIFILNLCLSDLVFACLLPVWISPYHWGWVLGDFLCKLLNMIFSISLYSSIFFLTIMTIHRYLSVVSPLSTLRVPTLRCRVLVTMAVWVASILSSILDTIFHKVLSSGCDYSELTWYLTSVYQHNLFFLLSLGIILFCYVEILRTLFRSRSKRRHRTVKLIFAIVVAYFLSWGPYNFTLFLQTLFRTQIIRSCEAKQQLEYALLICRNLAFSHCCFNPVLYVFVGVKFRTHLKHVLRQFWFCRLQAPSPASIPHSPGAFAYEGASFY

[10] = target: T7, 348 GPCRs (Homo sapiens, UniProt Q96RI9); details: 10µM, Favipiravir 100μM
T7 construct: expressed in transfected cells; host or cells: HEK293A
T7 sequence (Q96RI9 1-348): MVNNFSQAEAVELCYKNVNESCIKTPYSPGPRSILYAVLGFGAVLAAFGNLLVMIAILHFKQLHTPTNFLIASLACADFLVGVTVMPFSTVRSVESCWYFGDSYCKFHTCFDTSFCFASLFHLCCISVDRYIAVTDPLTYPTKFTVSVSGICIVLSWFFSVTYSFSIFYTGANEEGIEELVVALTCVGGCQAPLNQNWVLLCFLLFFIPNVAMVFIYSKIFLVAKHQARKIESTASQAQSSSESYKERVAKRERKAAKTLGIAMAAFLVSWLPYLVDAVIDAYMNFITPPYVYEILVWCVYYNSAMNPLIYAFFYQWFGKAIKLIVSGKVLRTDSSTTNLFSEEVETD

[11] = target: T8, 348 GPCRs (Homo sapiens, UniProt P46095)
T8 construct: expressed in transfected cells; host or cells: HEK293A
T8 sequence (P46095 whole entry): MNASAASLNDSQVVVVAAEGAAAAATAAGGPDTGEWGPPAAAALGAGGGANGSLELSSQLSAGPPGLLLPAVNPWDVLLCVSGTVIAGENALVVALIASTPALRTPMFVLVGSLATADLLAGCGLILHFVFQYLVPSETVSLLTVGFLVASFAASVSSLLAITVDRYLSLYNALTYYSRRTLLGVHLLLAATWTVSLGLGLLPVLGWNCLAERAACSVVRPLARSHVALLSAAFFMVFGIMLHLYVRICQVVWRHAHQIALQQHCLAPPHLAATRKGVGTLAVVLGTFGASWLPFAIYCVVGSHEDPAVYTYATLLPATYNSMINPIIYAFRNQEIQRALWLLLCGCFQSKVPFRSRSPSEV

[12] = target: T9, 348 GPCRs (Homo sapiens, UniProt Q9UBS5); details: 10µM, Favipiravir 100μM
T9 construct: expressed in transfected cells; host or cells: HEK293A
T9 sequence (Q9UBS5 20-961): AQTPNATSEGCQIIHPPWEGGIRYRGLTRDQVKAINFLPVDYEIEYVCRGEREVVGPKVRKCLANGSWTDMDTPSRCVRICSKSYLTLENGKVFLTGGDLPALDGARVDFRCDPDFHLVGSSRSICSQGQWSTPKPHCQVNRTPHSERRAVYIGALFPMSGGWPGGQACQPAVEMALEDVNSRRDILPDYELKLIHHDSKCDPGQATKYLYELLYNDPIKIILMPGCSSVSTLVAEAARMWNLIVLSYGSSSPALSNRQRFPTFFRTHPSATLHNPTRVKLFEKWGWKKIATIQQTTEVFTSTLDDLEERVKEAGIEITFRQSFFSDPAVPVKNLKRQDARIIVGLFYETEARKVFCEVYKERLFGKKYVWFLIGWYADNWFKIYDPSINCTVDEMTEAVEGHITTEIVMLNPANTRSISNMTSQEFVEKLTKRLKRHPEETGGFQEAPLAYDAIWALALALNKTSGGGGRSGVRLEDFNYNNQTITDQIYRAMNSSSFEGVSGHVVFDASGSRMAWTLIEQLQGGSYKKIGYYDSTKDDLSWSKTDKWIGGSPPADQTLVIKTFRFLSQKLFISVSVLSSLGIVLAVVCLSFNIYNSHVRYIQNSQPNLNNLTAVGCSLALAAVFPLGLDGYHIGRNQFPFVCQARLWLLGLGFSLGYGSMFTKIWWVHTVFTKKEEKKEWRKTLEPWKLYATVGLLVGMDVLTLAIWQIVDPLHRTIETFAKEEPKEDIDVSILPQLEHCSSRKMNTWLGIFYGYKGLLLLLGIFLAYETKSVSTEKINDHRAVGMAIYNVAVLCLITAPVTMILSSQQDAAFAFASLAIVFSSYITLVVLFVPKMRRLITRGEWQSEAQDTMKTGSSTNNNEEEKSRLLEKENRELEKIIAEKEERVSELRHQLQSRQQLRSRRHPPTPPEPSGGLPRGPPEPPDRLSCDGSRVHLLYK

[13] = target: T10, 348 GPCRs (Homo sapiens, UniProt O43614); details: HCRTR2 (hypocretin (orexin) receptor 2); 10µM, Favipiravir 100μM
T10 construct: expressed in transfected cells; host or cells: HEK293A
T10 sequence (O43614 1-444): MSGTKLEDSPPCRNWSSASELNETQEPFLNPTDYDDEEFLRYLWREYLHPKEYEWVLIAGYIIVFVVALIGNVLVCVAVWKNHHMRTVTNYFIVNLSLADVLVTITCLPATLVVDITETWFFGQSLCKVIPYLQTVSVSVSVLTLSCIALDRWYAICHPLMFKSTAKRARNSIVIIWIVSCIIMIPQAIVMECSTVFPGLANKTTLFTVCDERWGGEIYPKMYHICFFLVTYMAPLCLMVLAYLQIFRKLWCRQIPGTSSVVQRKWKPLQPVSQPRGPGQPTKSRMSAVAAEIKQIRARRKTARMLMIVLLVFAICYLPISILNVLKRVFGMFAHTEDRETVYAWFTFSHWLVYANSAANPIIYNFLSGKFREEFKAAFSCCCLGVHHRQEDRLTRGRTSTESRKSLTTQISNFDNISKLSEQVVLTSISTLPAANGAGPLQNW

[14] = target: 348 GPCRs (Homo sapiens, UniProt P21554); details: read-out: % GPCR activation compared to TPA, CB1 (cannabinoid receptor 1); 10µM, Favipiravir 100μM
Sequence of 348 GPCRs (Homo sapiens, UniProt P21554) (P21554 whole entry): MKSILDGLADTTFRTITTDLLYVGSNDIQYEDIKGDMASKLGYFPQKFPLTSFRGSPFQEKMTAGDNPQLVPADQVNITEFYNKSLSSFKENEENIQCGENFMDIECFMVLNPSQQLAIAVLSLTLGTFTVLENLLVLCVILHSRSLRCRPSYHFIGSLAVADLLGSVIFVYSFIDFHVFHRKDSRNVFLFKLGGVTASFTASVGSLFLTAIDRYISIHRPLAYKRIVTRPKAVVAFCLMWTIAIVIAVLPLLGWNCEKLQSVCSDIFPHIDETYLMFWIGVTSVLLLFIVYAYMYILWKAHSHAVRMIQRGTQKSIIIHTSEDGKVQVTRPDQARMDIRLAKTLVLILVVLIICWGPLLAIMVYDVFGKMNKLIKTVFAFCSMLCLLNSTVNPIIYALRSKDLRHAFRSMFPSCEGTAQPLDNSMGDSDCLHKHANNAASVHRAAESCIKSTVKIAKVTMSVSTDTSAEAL

[15] = read-out: % GPCR activation compared to TPA, GPR82 (G Protein-Coupled Receptor 82)
[16] = read-out: % GPCR activation compared to TPA, CCR2 (C-C motif chemokine receptor 2)
[17] = read-out: % GPCR activation compared to TPA, ADORA3 (adenosine A3 receptor)
[18] = read-out: % GPCR activation compared to TPA, RAMP1 (receptor-activity-modifying protein 1)
[19] = read-out: % GPCR activation compared to TPA, SSTR2 (somatostatin receptor 2)
[20] = read-out: % GPCR activation compared to TPA, GPR182 (G protein-coupled receptor 182)
[21] = read-out: % GPCR activation compared to TPA, GPCR XCR1 (chemokine (C motif) receptor 1/GPR5)
[22] = read-out: % GPCR activation compared to TPA, TAAR9 (trace amine associated receptor 9)
[23] = read-out: % GPCR activation compared to TPA, GPCR GPR6 (G protein-coupled receptor 6)
[24] = read-out: % GPCR activation compared to TPA, GABBR1 (gamma-aminobutyric acid (GABA) B receptor, 1)
[25] = GPR82 (G Protein-Coupled Receptor 82), read-out: % GPCR activation compared to TPA
[26] = CCR2 (C-C motif chemokine receptor 2), read-out: % GPCR activation compared to TPA
[27] = ADORA3 (adenosine A3 receptor), read-out: % GPCR activation compared to TPA
[28] = RAMP1 (receptor-activity-modifying protein 1), read-out: % GPCR activation compared to TPA
[29] = SSTR2 (somatostatin receptor 2), read-out: % GPCR activation compared to TPA
[30] = GPR182 (G protein-coupled receptor 182), read-out: % GPCR activation compared to TPA
[31] = GPCR XCR1 (chemokine (C motif) receptor 1/GPR5), read-out: % GPCR activation compared to TPA
[32] = TAAR9 (trace amine associated receptor 9), read-out: % GPCR activation compared to TPA
[33] = GPCR GPR6 (G protein-coupled receptor 6), read-out: % GPCR activation compared to TPA
[34] = GABBR1 (gamma-aminobutyric acid (GABA) B receptor, 1), read-out: % GPCR activation compared to TPA

| SMILES | % GPCR activation compared to TPA [1] | activation at 100 µM [2, 15] | activation at 100 µM [3, 16] | activation at 10 µM [4, 17] | % GPCR activation compared to TPA [5] | activation at 100 µM [6, 18] | activation at 10 µM [7, 19] | activation at 100 µM [8, 20] | activation at 10 µM [9, 21] | activation at 100 µM [10, 22] | % GPCR activation compared to TPA [13] | activation at 100 µM [14] | activation at 100 µM [2, 25] | activation at 100 µM [3, 26] | activation at 10 µM [4, 27] | activation at 100 µM [6, 28] | activation at 10 µM [7, 29] | activation at 100 µM [8, 30] | activation at 100 µM [10, 32] | activation at 100 µM [12, 34] | also measured |
| --- | --- | --- | --- | --- | --- | --- | --- | --- | --- | --- | --- | --- | --- | --- | --- | --- | --- | --- | --- | --- | --- |
| CC(C)OC(=O)[C@H](C)N[P@](=O)(OC[C@H]1O[C@@H](n2ccc(=O)[nH]c2=O)[C@](C)(F)[C@@H]1O)Oc1ccccc1 [sofosbuvir] | -0.7581% | 0.262% | -0.876% | -1.59% | 0.153% | -0.995% | -1.14% | 0.0893% | -0.208% | -1.74% | -1.966% | -1.13% | – | – | – | – | – | – | – | – | activation at 10 µM [11, 23]: -0.69%; activation at 100 µM [12, 24]: -1.14% |
| CC(C)C(=O)OC[C@H]1O[C@@H](n2ccc(NO)nc2=O)[C@H](O)[C@@H]1O [molnupiravir] | -0.8417% | – | – | – | -0.08366% | – | – | – | – | – | 0.4774% | -1.3% | -1.43% | 0.105% | -0.751% | -0.742% | -0.658% | 0.0693% | -1.9% | -1.05% | activation at 10 µM [9, 31]: -0.399%; activation at 10 µM [11, 33]: -0.366% |
| NC(=O)c1nc(F)cnc1O [favipiravir, 6-fluoro-3-hydroxy-2-pyrazinecarboxamide] | -1.156% | – | – | – | -0.5125% | – | – | – | – | – | 0.7248% | 1.89% | -0.0995% | 5.66% | 2.09% | -0.805% | -0.842% | -0.288% | -0.821% | -4.01% | activation at 100 µM ([9]; GPCR XCR1 (chemokine (C motif) receptor 1/GPR5), 100μM, read-out: % GPCR activation compared to TPA): 0.846%; activation at 100 µM ([11]; GPCR GPR6 (G protein-coupled receptor 6), 100μM, read-out: % GPCR activation compared to TPA): 1.83% |
| N#C[C@@]1(c2ccc3c(N)ncnn23)O[C@H](CO)[C@@H](O)[C@H]1O [GS441524] | -1.471% | – | – | – | 0.8944% | – | – | – | – | – | 2.174% | 0.0409% | -1.55% | 2.78% | 2.73% | -0.968% | -0.998% | 0.124% | -2.32% | -3.77% | activation at 10 µM [9, 31]: -1.92%; activation at 10 µM [11, 33]: 5.11% |
| CCC(CC)COC(=O)[C@H](C)N[P@](=O)(OC[C@H]1O[C@@](C#N)(c2ccc3c(N)ncnn23)[C@H](O)[C@@H]1O)Oc1ccccc1 [remdesivir] | 0.4815% | -0.315% | 5.23% | 5.91% | -0.9507% | 1.07% | 0.304% | 2.44% | 0.628% | 0.293% | 0.0002648% | -4.06% | – | – | – | – | – | – | – | – | activation at 10 µM [11, 23]: 7.41%; activation at 100 µM [12, 24]: -3.66% |
